The values below come from ChEMBL document CHEMBL1130390, “Design and synthesis of novel imidazole-substituted dipeptide amides as potent and selective inhibitors of Candida albicans myristoylCoA:protein N-myristoyltransferase and identification of related tripeptide inhibitors with mechanism-based antifungal activity” (J Med Chem, 1997).

By IC50 is commonly meant the concentration needed to halve the response being measured. Higher therefore signals weaker potency. Usually EC50 stands for the concentration at which the effect is half-maximal.

Assay [1] addresses T1, Peptide N-myristoyltransferase (Homo sapiens, UniProt P30419+O60551).
T1 sequence (P30419 whole entry): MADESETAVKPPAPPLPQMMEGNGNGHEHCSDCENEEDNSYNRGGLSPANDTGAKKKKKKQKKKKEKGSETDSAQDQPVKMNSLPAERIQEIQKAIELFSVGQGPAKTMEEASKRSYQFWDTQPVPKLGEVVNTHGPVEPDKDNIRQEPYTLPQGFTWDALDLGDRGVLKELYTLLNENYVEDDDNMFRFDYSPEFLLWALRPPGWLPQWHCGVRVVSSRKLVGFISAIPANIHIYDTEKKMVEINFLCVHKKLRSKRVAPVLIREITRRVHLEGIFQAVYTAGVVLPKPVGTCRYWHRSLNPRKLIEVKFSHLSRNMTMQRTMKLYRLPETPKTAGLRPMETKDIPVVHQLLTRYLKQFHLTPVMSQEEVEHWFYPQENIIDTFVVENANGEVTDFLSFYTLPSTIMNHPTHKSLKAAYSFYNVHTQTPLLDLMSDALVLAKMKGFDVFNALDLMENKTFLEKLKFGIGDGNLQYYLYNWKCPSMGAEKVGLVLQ
T1 sequence (O60551 whole entry): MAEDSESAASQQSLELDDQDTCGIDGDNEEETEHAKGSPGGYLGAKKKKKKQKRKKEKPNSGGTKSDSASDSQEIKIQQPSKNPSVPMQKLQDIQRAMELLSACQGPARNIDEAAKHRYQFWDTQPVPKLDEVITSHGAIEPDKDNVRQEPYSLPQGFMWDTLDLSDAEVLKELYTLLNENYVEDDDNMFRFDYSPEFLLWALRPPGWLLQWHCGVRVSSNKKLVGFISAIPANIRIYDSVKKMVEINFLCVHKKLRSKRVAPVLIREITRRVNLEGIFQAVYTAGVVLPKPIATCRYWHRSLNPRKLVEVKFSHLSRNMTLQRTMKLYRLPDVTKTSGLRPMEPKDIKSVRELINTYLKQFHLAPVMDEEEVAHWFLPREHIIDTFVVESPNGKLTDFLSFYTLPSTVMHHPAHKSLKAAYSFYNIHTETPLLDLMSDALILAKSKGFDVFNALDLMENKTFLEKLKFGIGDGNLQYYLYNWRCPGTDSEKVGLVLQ
Briefly: Inhibition activity against N-myristoyltransferase (NMT) of human. The class given is protein assay.

Assay [2] deals with Peptide N-myristoyltransferase (Candida albicans).
The subject of assay [3] is Candida albicans. Briefly: tested to obtain the effective concentration to inhibit candida albicans. It is filed as functional, organism-based.
The test system of a further assay is Cryptococcus neoformans. Briefly: Growth inhibitory activity against Cryptococcus neoformans. The class given is functional, organism-based.
The subject of assay [4] is Candida albicans. The assay is described as follows: Growth inhibitory activity against candida albicans. It is filed as functional, organism-based.

Bounds are passed on as bounds.

With `Cc1nc2ccccc2n1CCCCc1ccc(C(C)C(=O)N[C@@H](CO)C(=O)N[C@@H](CCCCN)C(=O)NCCC2CCCCC2)cc1` (stereo not given in full), the IC50 is 119.5 µM in assay [1] and 0.86 µM in assay [2].

On to `Cc1nccn1CCCCc1ccc(CC(=O)N[C@H](CO)C(=O)N[C@H](CCCCN)C(=O)N[C@H](CC2CCCCC2)C(=O)O)cc1`, for which the concentration for a half-maximal effect (EC50) in the assay with Candida albicans [3] and in the assay with Cryptococcus neoformans was over 100 µM throughout. Further, the half-inhibitory concentration (IC50) in assay [1] and in assay [2] was over 1000 µM throughout.

On to `NCCCC[C@H](NC(=O)[C@H](CO)NC(=O)CCCCCCCCn1ccnc1)C(=O)NCCC1CCCCC1`, for which the IC50 in assay [2] amounted to 5.5 µM.

On to `CC(C)c1nccn1CCCCc1ccc(CC(=O)N[C@@H](CO)C(=O)N[C@@H](CCCCN)C(=O)NCCC2CCCCC2)cc1`, for which the IC50 was over 100 µM in assay [1] and 0.2 µM in assay [2].

Take `NCCCC[C@H](NC(=O)[C@H](CO)NC(=O)Cc1ccc(CCCCn2ccnc2)cc1)C(=O)NCCC1CCCCC1`: the IC50 in assay [2] is 0.31 µM.

In the case of `Cc1nccn1CCCCc1ccc(C(C)C(=O)N[C@@H](CO)C(=O)N[C@@H](CCCCN)C(=O)N[C@@H](CC2CCCCC2)C(=O)O)cc1` (stereo not given in full), the concentration for a half-maximal effect (EC50) is 33 µM with Candida albicans [3] and over 100 µM in the assay on Cryptococcus neoformans. Further, the values for the IC50 in assay [1] and in assay [2] were 840 µM and 0.38 µM, respectively.

The molecule `NCCCC[C@H](NC(=O)[C@H](CO)NC(=O)Cc1ccc(CCCCCn2ccnc2)cc1)C(=O)NCCC1CCCCC1` yielded an IC50 in assay [2] of 1.2 µM. This lies in the single-digit micromolar range.

Molecule `NCCCC[C@H](NC(=O)[C@H](CO)NC(=O)CCCCCCCCCn1ccnc1)C(=O)NCCC1CCCCC1` registered an IC50 in assay [2] of 3 µM.

For `CCc1nccn1CCCCc1ccc(CC(=O)N[C@@H](CO)C(=O)N[C@@H](CCCCN)C(=O)NCCC2CCCCC2)cc1`, the IC50 in assay [1] came out at 28.2 µM; in assay [2] it was 0.147 µM.

As to `CC(C(=O)N[C@@H](CO)C(=O)N[C@@H](CCCCN)C(=O)NCCC1CCCCC1)c1ccc(CCCCn2ccnc2Cl)cc1` (stereo not given in full), the values for the IC50 in assay [1] and in assay [2] were 142 µM and 2.05 µM, respectively.

In assay [2], `NCCCC[C@H](NC(=O)[C@H](CO)NC(=O)CCCCCCCCCCCn1ccnc1)C(=O)NCCC1CCCCC1` gave an IC50 of 3 µM.

For the molecule `Cc1nccn1CCCCc1ccc(CC(=O)N[C@@H](CO)C(=O)N[C@@H](CCCCN)C(=O)N[C@@H](CC2CCCCC2)C(=O)O)cc1`, the EC50 with Candida albicans [4] was 51 µM; with Cryptococcus neoformans, over 100 µM. In addition, the IC50 in assay [1] came out at 809.5 µM; in assay [2], 1.45 µM.

The molecule `NCCCC[C@H](NC(=O)[C@H](CO)NC(=O)Cc1ccc(CCCCn2ccnc2I)cc1)C(=O)NCCC1CCCCC1` gave an IC50 in assay [2] of 1.88 µM.

For `COC(=O)[C@H](NC(=O)[C@H](CCCCN)NC(=O)[C@H](CO)NC(=O)Cc1ccc(CCCCn2ccnc2C)cc1)C(=O)O`, the EC50 in the assay with Candida albicans [3] and with Cryptococcus neoformans was over 100 µM throughout. For the same molecule, the results for the IC50 in assay [1] and in assay [2] were 22.7 µM and 0.081 µM, respectively.
